GI50 data for 19 compounds are collected here from patent publication US9132130B2, “Purine derivative and antitumor agent using same” (ZENYAKU KOGYO KABUSHIKI KAISHA, priority 2009, dated 2015).

Holding throughout (type): cell-based
For experiment [1], the system named is P388 cells (mouse leukemia cells). The experiment is described as follows: in vitro antitumor activity test, P388 cells, XTT colorimetry. To be noted: cultured 72 hours. Here is the method:
P388 cells (mouse leukemia cells) passaged in the abdominal cavity of DBA/2 mice were extracted with ascitic fluid, and cultured in a RPMI 1640 medium (added with 10% fetal bovine serum, 25 mM HEPES, 0.1 mg/ml kanamycin and 5 μM 2-hydroxyethyldisulfide) at 37° C. in 5% carbon dioxide gas. After culturing for 16 hours, floating P388 cells were made into a single cell suspension of 4×10^4 cells per 1 ml using the same RPMI 1640 medium as given above. The test substances were dissolved in DMSO, then diluted in a RPMI 1640 medium (added with 10% fetal bovine serum, 25 mM HEPES and 0.1 mg/ml kanamycin) and prepared so that the concentrations were 2.0×10^−9 to 2.0×10^−4 M.
0.1 ml of the cell suspension was placed into each well of 96-well microplates, then 0.1 ml of the sample solutions were added, and cultured for 72 hours at 37° C. in 5% carbon dioxide gas.
(§1) Afterwards, the level of growth inhibition at various sample concentrations was obtained using XTT colorimetry, and concentrations at which growth was inhibited by 50% (GI50 values [μM]) were calculated.
For orientation: Formazan colour is commonly taken as a measure of viable cells.

Experiment [2] relates to PC-3 cells (human prostate cancer cells). As to the kind of experiment: in vitro antitumor activity test, PC-3 cells, XTT colorimetry. The settings on record: PC-3 human prostate cancer cells, cultured 72 hours. How it is done: (§2) WiDr cells (human colon cancer cells) subcultured in a culture medium composed of a MEM medium added with 10% fetal bovine serum, 25 mM HEPES and 0.1 mg/ml kanamycin under the conditions of 37° C. and 5% carbon dioxide gas were made into single floating cells by treating with trypsin/EDTA, and a single cell suspension of 3×10^4 cells per 1 ml was prepared using the MEM medium (added with 10% fetal bovine serum, 25 mM HEPES and 0.1 mg/ml kanamycin). After dissolving the test compounds in DMSO, they were diluted in a RPMI 1640 medium (added with 10% fetal bovine serum, 25 mM HEPES and 0.1 mg/ml kanamycin) and prepared so that the concentrations were 2.0×10^−9 to 2.0×10^−4 M.
(§3) 0.1 ml of the cell suspension was placed into each well of 96-well microplates, cultured for 24 hours to allow the cells to adhere to the microplates, then 0.1 ml of the sample solutions were added, and cultured for 72 hours at 37° C. in 5% carbon dioxide gas.
as §1
(§4) In addition, cells other than WiDr cells that were used, and the condition for preparing each single cell suspension were as follows.
PC-3 cells (human prostate cancer cells): 2×10^4 cells/ml

Experiment [3] relates to B16F10 cells (mouse melanoma [malignant melanoma] cells). As to the kind of experiment: in vitro antitumor activity test, B16F10 cells, XTT colorimetry. To be noted: B16-F10, cultured 72 hours. How it is done: as §2, §3, §1, §4
B16F10 cells (mouse melanoma [malignant melanoma] cells): 1×10^4 cells/ml

The test system of experiment [4] is WiDr cells (human colon cancer cells). The experiment is described as follows: in vitro antitumor activity test, WiDr cells, XTT colorimetry. The settings on record: cultured 72 hours. How it is done:
as §2, §3, §1

In experiment [5] the test system is A549 cells (human lung cancer cells). The experiment is described as follows: in vitro antitumor activity test, A549 cells, XTT colorimetry. The settings on record: cultured 72 hours. Here is the method:
as §2, §3, §1, §4
A549 cells (human lung cancer cells): 2×10^4 cells/ml

Structures are written as SMILES.

Regarding `CCN(CC)c1nc(SCc2ccc(OC)cc2)nc2c1ncn2C` [Compound 25, 6-diethylamino-2-(4-methoxybenzylsulfanyl)-9-methyl-9H-purine], the GI50 in experiment [1] stood at 680 nM; in experiment [2] it was 1130 nM; in experiment [3], 1380 nM; in experiment [4] it was 820 nM; in experiment [5] it was 950 nM.

Regarding `CCc1nc2c(N3CCOCC3)nc(SCc3ccc(C)c(F)c3)nc2n1C` [Compound 11, 8-ethyl-2-(3-fluoro-4-methylbenzylsulfanyl)-9-methyl-6-morpholino-9H-purine], the GI50 in experiment [1] was 670 nM; in experiment [2] it was 400 nM; in experiment [3], 1490 nM; in experiment [4] it was 1040 nM; in experiment [5], 1160 nM.

With `C/C=C/c1nc(SCc2ccc(OC)cc2)nc2c1ncn2C` [Compound 163, 2-(4-methoxybenzylsulfanyl)-9-methyl-6-(1-trans-propenyl)-9H-purine], the GI50 in experiment [1] was found to be 280 nM; in experiment [2], 870 nM; in experiment [3], 540 nM; in experiment [4], 510 nM; in experiment [5], 670 nM.

As for `CCOc1ccc(CSc2nc(N(C)C)c3ncn(C)c3n2)cc1N` [Compound 140, 2-(3-amino-4-ethoxybenzylsulfanyl)-6-dimethylamino-9-methyl-9H-purine], the GI50 stood at 50 nM in experiment [1]; 110 nM in experiment [2]; 160 nM in experiment [3]; 360 nM in experiment [4]; 90 nM in experiment [5].

As to `COc1ccc(CSc2nc(N3C=COCC3)c3ncn(C)c3n2)cc1N` [Compound 150, 2-(3-amino-4-methoxybenzylsulfanyl)-6-(2,3,-dihydro-[1,4]oxadin-4-yl)-9-methyl-9H-purine], the GI50 was found to be 110 nM in experiment [1]; 150 nM in experiment [2]; 300 nM in experiment [3]; 780 nM in experiment [4]; 150 nM in experiment [5].

Turning to `CCN(C)c1nc(SCc2ccc(OC)c(F)c2)nc2c1ncn2C` [Compound 82, 6-(N-ethyl-N-methylamino)-2-(3-fluoro-4-methoxybenzylsulfanyl)-9-methyl-9H-purine], the GI50 stood at 110 nM in experiment [1]; 300 nM in experiment [2]; 300 nM in experiment [3]; 210 nM in experiment [4]; 140 nM in experiment [5].

For `CN(C)c1nc(SCc2ccccc2)nc2[nH]cnc12` [Compound C, reference compound], the GI50 in experiment [1], in experiment [2], in experiment [3], in experiment [4] and in experiment [5] was above 10000 nM in each case.

Turning to `CCOc1ccc(CSc2nc(N3CCOCC3)c3nc(CC)n(CC)c3n2)cc1F` [Compound 117, 8,9-diethyl-2-(4-ethoxy-3-fluorobenzylsulfanyl)-6-morpholino-9H-purine], the GI50 amounted to 300 nM in experiment [1]; 310 nM in experiment [2]; 370 nM in experiment [3]; 290 nM in experiment [4]; 430 nM in experiment [5].

Turning to `C=Cc1ccc(CSc2nc(N3CCOCC3)c3nc(CC)n(C)c3n2)cc1` [Compound 10, 8-ethyl-9-methyl-6-morpholino-2-(4-vinylbenzylsulfanyl)-9H-purine], the GI50 in experiment [1] turned out to be 1280 nM; in experiment [2] it was 890 nM; in experiment [3], 1820 nM; in experiment [4], 1250 nM; in experiment [5], 1690 nM.

Regarding `CCc1nc2c(N3CCOCC3)nc(SC(c3ccccc3)c3ccccc3)nc2n1C` [Compound 100, 2-benzhydrylsulfanyl-8-ethyl-9-methyl-6-morpholino-9H-purine], the GI50 in experiment [1] was 3290 nM; in experiment [2] it was 150 nM; in experiment [3], 4630 nM; in experiment [4], 6110 nM; in experiment [5], 3900 nM.

`CCc1nc2c(N3CCOCC3)nc(SCc3ccc(OC)c(Br)c3)nc2n1C` [Compound 78, 2-(3-bromo-4-methoxybenzylsulfanyl)-8-ethyl-9-methyl-6-morpholino-9H-purine]: the GI50 in experiment [1] amounted to 910 nM; in experiment [2] it was 360 nM; in experiment [3], 1200 nM; in experiment [4], 1100 nM; in experiment [5] it was 1100 nM.

Take `COc1ccc(CSc2nc(N3CC=CC3)c3ncn(C)c3n2)cc1[N+](=O)[O-]` [Compound 142, 2-(4-methoxy-3-nitrobenzylsulfanyl)-9-methyl-6-(3-pyrrolin-1-yl)-9H-purine]: the GI50 stood at 50 nM in experiment [1]; 100 nM in experiment [2]; 190 nM in experiment [3]; 1150 nM in experiment [4]; 80 nM in experiment [5].

Turning to `CCc1nc2c(N3CCOCC3)nc(SCc3ccc(OC)c(C#N)c3)nc2n1CC` [Compound 94, 2-(3-cyano-4-methoxybenzylsulfanyl)-8,9-diethyl-6-morpholino-9H-purine], the GI50 came to 80 nM in experiment [1]; 110 nM in experiment [2]; 140 nM in experiment [3]; 80 nM in experiment [4]; 100 nM in experiment [5].

For the compound `CNc1nc(SCc2ccc(OC)c(C#N)c2)nc2c1ncn2C` [Compound 72, 2-(3-cyano-4-methoxybenzylsulfanyl)-6-methylamino-9-methyl-9H-purine], the GI50 in experiment [1], in experiment [2], in experiment [3], in experiment [4] and in experiment [5] was below 40 nM throughout.

Consider `CCOc1ccc(CSc2nc(N3CCOCC3)c3nc(CC)n(C)c3n2)cc1` [Compound 17, 2-(4-ethoxybenzylsulfanyl)-8-ethyl-9-methyl-6-morpholino-9H-purine], for which the GI50 came to 360 nM in experiment [1]; 460 nM in experiment [2]; 1290 nM in experiment [3]; 510 nM in experiment [4]; 760 nM in experiment [5].

For the compound `C=Cc1nc(SCc2ccc(OC)cc2)nc2c1ncn2C` [Compound 165, 2-(4-methoxybenzylsulfanyl)-9-methyl-6-vinyl-9H-purine], the GI50 in experiment [1] turned out to be 260 nM; in experiment [2], 3200 nM; in experiment [3], 980 nM; in experiment [4] it was 4100 nM; in experiment [5], 3300 nM.

As for `COc1ccc(CSc2nc(N3C=COCC3)c3ncn(C)c3n2)cc1[N+](=O)[O-]` [Compound 149, 6-(2,3-dihydro-[1,4]oxadin-4-yl)-2-(4-methoxy-3-nitrobenzylsulfanyl)-9-methyl-9H-purine], the GI50 in experiment [1] was determined as 490 nM; in experiment [2] it was 530 nM; in experiment [3], 1380 nM; in experiment [4], 350 nM; in experiment [5], 470 nM.

Regarding `COc1ccc(CSc2nc(N(C)C)c3ncn(C)c3n2)cc1F` [Compound 86, 6-dimethylamino-2-(3-fluoro-4-methoxybenzylsulfanyl)-9-methyl-9H-purine], the GI50 in experiment [1] stood at 30 nM; in experiment [2], 50 nM; in experiment [3] it was 60 nM; in experiment [4], 40 nM; in experiment [5], 50 nM.

With `COc1ccc(CSc2nc(N3CCOCC3)c3ncn(C)c3n2)cc1N` [Compound 18, 2-(3-amino-4-methoxybenzylsulfanyl)-9-methyl-6-morpholino-9H-purine], the GI50 was determined as 350 nM in experiment [1]; 690 nM in experiment [2]; 1090 nM in experiment [3]; 3140 nM in experiment [4]; 950 nM in experiment [5].

The GI50 is the concentration at which growth is held to half of that of the control. High values mean less potent growth inhibition, low ones more potent growth inhibition.
